This is an account of results in patent US12673077B2, “Anthelmintic probiotic compositions and methods” (priority 2014, dated 2026).

Experiment [1] has as its system A. ceylanicum. The conditions noted are these: cited from earlier work; for % Parasite reduction: hamsters.
Experiment [2] relates to Ancylostoma ceylanicum hookworms. Description: A. ceylanicum hookworm curative experiment in hamsters (worm burdens, fecal egg counts). The following applies: single 10 mg/kg (71 nmol/kg) Cry5B dose per os. It counts as in vivo. The method, then:
(A) Intestinal hookworm burdens in nine hamsters following treatment with PY79-vector or PY79-Cry5B (10 mg/kg Cry5B) (error bars in all panels show standard errors). The average worm burdens were 18.6±2.6 and 1.3±0.3 for PY79-vector and PY79-Cry5B, respectively. (B) Fecal egg counts on day −1, day +1, and day +3 relative to the day of treatment. The actual egg counts for PY79-vector and PY79-Cry5B were 965±193 and 1,044±99, respectively, on day −1, 1,055±230 and 94±60, respectively, on day +1, and 1,055±227 and 100±42, respectively, on day +3. EPG, eggs per gram of feces. (C) In vivo dose-response experiment with 12 hamsters. […]
For in vivo curative experiments, male hamsters were infected per os with 150 A. ceylanicum infectious larvae. On day 17 postinoculation (p.i.), a fecal sample was collected from each hamster, and the number of eggs was counted using the modified McMaster technique (13). […] The hamsters were sacrificed on day 22 p.i., and intestinal parasite burdens were determined as described previously (14). The one-tailed Mann-Whitney test was performed to compare the two groups for significance in the experiment using a dose of 10 mg/kg of body weight (data were calculated and plotted using Prism 5 [GraphPad Software Inc., La Jolla, CA]). […]

Like-named read-outs stand apart in the source and are kept apart here.

As to `CCCSc1ccc2nc(NC(=O)OC)[nH]c2c1` [Albendazole, albendazole], the “% Parasite reduction” value in experiment [1] (1.25 mg/kg (4.7 μmol/kg)) is given as 88%.
As for `c1ccc([C@H]2CN3CCSC3=N2)cc1` [Levamisole, levamisole], the “% Parasite reduction” value in experiment [1] (10 mg/kg) is given as 60%.
Take `CN1CCCN=C1/C=C/c1cccs1` [Pyrantel, pyrantel]: in experiment [1] (10 mg/kg), the “% Parasite reduction” value is listed as 87%.
Regarding `C/C(=N/c1ccc(/N=C/c2ccc(/C=N/c3ccc(/N=C(/C)N(C)C)cc3)cc2)cc1)N(C)C` [Tribendimidine, tribendimidine], the “% Parasite reduction” value in experiment [1] (10 mg/kg) is recorded as 75%.

B1: Cry5B: Bacillus thuringiensis crystal (Cry) protein Cry5B, purified protein (sequence FIG. 2, SEQ ID NO:1) (protein, listed as Bacillus thuringiensis)
chain: MATINELYPVPYNVLAHPIKEVDDPYSWSNLLKGIQEGWEEWGKTGQKKLFEDHLTIAWNLYKTGKLDYFALTKASISLIGFIPGAEAAVPFINMFVDFVWPKLFGANTEGKDQQLFNAIMDAVNKMVDNKFLSYNLSTLNKTIEGLQGNLGLFQNAIQVAICQGSTPERVNFDQNCTPCNPNQPCKDDLDRVASRFDTANSQFTQHLPEFKNPWSDENSTQEFKRTSVELTLPMYTTVATLHLLLYEGYIEFMTKWNFHNEQYLNNLKVELQQLIHSYSETVRTSFLQFLPTLNNRSKSSVNAYNRYVRNMTVNCLDIAATWPTFDTHNYHQGGKLDLTRIILSDTAGPIEEYTTGDKTSGPEHSNITPNNILDTPSPTYQHSFVSVDSIVYSRKELQQLDIATYSTNNSNNCHPYGLRLSYTDGSRYDYGDNQPDFTTSNNNYCHNSYTAPITLVNARHLYNAKGSLQNVESLVVSTVNGGSGSCICDAWINYLRPPQTSKNESRPDQKINVLYPITETVNKGTGGNLGVISAYVPMELVPENVIGDVNADTKLPLTQLKGFPFEKYGSEYNNRGISLVREWINGNNAVKLSNSQSVGIQITNQTKQKYEIRCRYASKGDNNVYFNVDLSENPFRNSISFGSTESSVVGVQGENGKYILKSITTVEIPAGSFYVHITNQGSSDLFLDRIEFVPKIQFQFCDNNNLHCDCNNPVDTDCTFCCVCTSLTDCDCNNPRGLDCTLCCQVENQLPSFVTLTDLQNITTQVNALVASSEHDTLATDVSDYEIEEVVLKVDALSGEVFGKEKKALRKLVNHTKRLSKARNLLIGGNFDNLDAWYRGRNVVNVSDHELFKSDHVLLPPPTLYSSYMFQKVEESKLKANTRYTVSGFIAHAEDLEIVVSRYGQEVKKVVQVPYGEAFPLTSRGAICCPPRSTSNGKPADPHFFSYSIDVGTLDVEANPGIELGLRIVERTGMARVSNLEIREDRPLKKNELRNVQRAARNWRTAYDQERAEVTALIQPVLNQINALYENEDWNGAIRSGVSYHDLEAIVLPTLPKLNHWFMSDMLGEQGSILAQFQEALDRAYTQLEESTILHNGHFTTDAANWTIEGDAHHAILEDGRRVLRLPDWSSSVSQTIEIENFDPDKEYQLVFHAQGEGTVSLQHGEEGEYVETHPHKSANFTTSHRQGVTFETNKVTVEITSEDGEFLVDHIALVEAPLPTDDQSSDGNTTSNTNSNTSMNNNQ
modifications: pesticidal crystal (Cry)
In the case of B1, the “% reduction of hookworm burden relative to control” value in experiment [2] stood at 93%. The “% reduction of hookworm burden” value in experiment [1] (purified protein 10 mg/kg, previously published data (ref 14)) was 65%.
